# Marks after values point to notes of the source that are not given here.
# How the values were obtained:
# [1] = test system: uterus and vagina of ovariectomized mice; test: Uterine and vaginal weight in ovariectomized mice treated or not with estrone (9 days oral); type: in vivo, BALB/c mice; conditions: for Inhibition of estrone-stimulated uterine weight / Inhibition of estrone-stimulated vaginal weight: 9 days, OVX mice + E1
# Procedure: (St-Constant, Quebec, Canada) and housed 5 per cage in a temperature (23±1° C.)—and light (12 h light/day, lights on at 7:15)—controlled environment. The mice were fed rodent chow and tap water ad libitum. […] Ten mice were kept intact as controls. […] Compounds were dissolved in ethanol (4% final concentration) and administered in 0.4% methylcellulose. Mice in the intact and OVX control groups received the vehicle alone (4% ETOH-0.4% methylcellulose) during the 9-day period. The animals were killed by exsanguination at the abdominal aorta on the 11th morning following ovariectomy.
# [2] = test system: ovariectomized female rats; test: Prevention of bone loss, body fat, serum cholesterol and ALP, 3-month treatment of OVX rats (Example 5A, experiment 1); type: in vivo, Sprague-Dawley rats; conditions: OVX rats, 3 months
# Procedure: (§1) Ten to twelve week-old female Sprague-Dawley rats (Crl:CD(SD)Br) (Charles River Laboratory, St-Constant, Canada) weighing approximately 220-270 g at start of treatment were used. The animals were acclimatized to the environmental conditions (temperature: 22±3° C.; humidity: 50±20%; 12-h light-12-h dark cycles, lights on at 07:15 h) for at least 1 week before starting the experiments. The animals were housed individually and were allowed free access to tap water and a pelleted certified rodent feed (Lab Diet 5002, Ralston Purina, St-Louis, Mo.). Experiments were conducted in an animal facility approved by the Canadian Council on Animal Care (CCAC) and the Association for Assessment and Accreditation of Laboratory Animal Care (AAALAC) in accordance with the CCAC Guide for Care and Use of Experimental Animals.
# On day 1 of the study, the animals of the appropriate groups were bilaterally ovariectomized (OVX) under isoflurane anesthesia. […] Treatments were initiated on day 2 of the study and were performed once daily during 3 months.
# (§2) After 3 months (experiment 1) or 26 weeks (experiment 2) of treatment, individual rats under Isoflurane anesthesia had their whole body skeleton and lumbar spine scanned using dual energy x-ray absorptiometry (DEXA; QDR 4500A, Hologic, Waltham, Mass.) and a Regional High Resolution Scan software. The bone mineral density (BMD) of the lumbar spine (vertebrae L2 to L4) and the total body composition (fat percentage) were determined.
# (§3) After 3 months (experiment 1) or 26 weeks (experiment 2) of treatment, blood samples were collected at the jugular vein from overnight fasted animals (under Isoflurane anesthesia). Samples were processed for serum preparation and frozen at −80° C. until assay. Serum cholesterol levels and alkaline phospatase activity (ALP) were determined using the Boehringer Mannheim Diagnostic Hitachi 911 Analyzer (Boehringer Mannheim Diagnostic Laboratory Systems).
# [3] = test system: ovariectomized female rats; test: Prevention of bone loss, body fat, serum cholesterol and ALP, 26-week treatment of OVX rats (Example 5A, experiment 2); type: in vivo, Sprague-Dawley rats; conditions: OVX rats, 26 weeks
# Procedure: as §1
# On day 1 of the study, the animals of the appropriate groups were bilaterally OVX under isoflurane anesthesia. Tested compounds were administered as suspension in 0.4% methylcellulose by oral gavage. Treatments were initiated on day 2 of the study and were performed once daily during 26 weeks. In both experiments, animals not receiving a test article were treated with the appropriate vehicle alone during the same period.
# as §2, §3
# endometrial epithelium = test: Thickness of uterine (endometrial) epithelial cells in the mice of Example 8; type: in vivo, nude mice; conditions: for Endometrial epithelium thickness: 161 days
# From the text: The 17 groups included two control groups (OVX and OVX+Estrone), seven groups supplemented with an estrone implant and treated with an antiestrogen and eight other groups that received an antiestrogen alone. The estrone implants were then removed from the animals in the ovariectomized control group (OVX) and in groups that were to receive the antiestrogen alone. […] Tamoxifen was purchased from […], Israel) while toremifene citrate was purchased from Orion (Espoo, Finland). […] Animals in both control groups received 0.2 ml of the vehicle alone. The antiestrogen suspensions at the appropriate concentration were prepared each month, stored at 4° C. and used under constant agitation. Powder stock were hermetically stored at 4° C. […] After 161 days of treatment, the remaining animals were anesthetized with isoflurane and killed by exsanguination. […] The uteri were prepared to evaluate endometrial thickness by image analysis performed with Image Pro-Plus (Media Cybernetics, Maryland, USA). […] Hematoxylin- and eosin-stained sections of mice uteri were analysed. […] Mean epithelial cell height was measured in all animals of each group.
# Solid state stability = type: physicochemical
# From the text: In administering either EM-800 or EM-1538, it is believed to result in the same active compound in vivo.
# [4] = alone, absence of estrone, both doses used
smiles,measurement,setting,value
"CC1=C(c2ccc(O)cc2)[C@H](c2ccc(OCCN3CCCCC3)cc2)Oc2cc(O)ccc21.Cl [EM-652.HCl, (S)-(+)-7-hydroxy-3-(4′-hydroxyphenyl)-4-methyl-2-(4″-(2′″-piperidinoethoxy)phenyl)-2H-1-benzopyran hydrochloride]",Inhibition of estrone-stimulated uterine weight,[1]; 1 μg daily oral,24%
same,Inhibition of estrone-stimulated vaginal weight,[1]; 1 μg daily oral,10%
same,Inhibition of estrone-stimulated uterine weight,[1]; 3 μg daily oral,48%
same,Inhibition of estrone-stimulated vaginal weight,[1]; 3 μg daily oral,25%
same,Inhibition of estrone-stimulated uterine weight,[1]; 10 μg daily oral,72%
same,Inhibition of estrone-stimulated vaginal weight,[1]; 10 μg daily oral,53%
same,Stimulatory effect on uterine weight,[1]; [4],no significant stimulatory effect
same,Stimulatory effect on vaginal weight,[1]; [4],no significant stimulatory effect
same,OVX-induced fat percentage increase,[2],completely prevented
same,Serum ALP,[2],91 ± 6 IU/L
same,Serum cholesterol,[2],0.87 ± 0.04 mmol/L
same,Serum ALP,[3],78 ± 4 IU
same,Serum cholesterol,[3],0.98 ± 0.06 mmol/L
same,Inhibition of the stimulatory effect of estrone on epithelial height,endometrial epithelium; 50 μg daily oral + estrone,70%
same,"Height of uterine epithelial cells, of the OVX control group value","endometrial epithelium; 200 μg daily, absence of estrone",114%
same,Endometrial epithelium thickness,endometrial epithelium; OVX + E1 + antiestrogen 50 μg daily,25.06^b ± 0.07 μm
same,Endometrial epithelium thickness,"endometrial epithelium; OVX + antiestrogen 200 μg daily, no estrone",20.79 ± 0.10 μm
same,Solid state stability,Solid state stability,good solid state stability
